Legend:
[1] = Drug localization in human HeLa cells mitochondria at 25 uM by Mito-Tracker red CMXRos staining based fluorescence microscopic analysis; assay type: ADME
[2] = Drug localization in human HeLa cells mitochondria assessed as mander's colocalization coefficient at 25 uM within 2 hrs by Mito-Tracker red CMXRos staining based fluorescence microscopic analysis; assay type: ADME
[3] = Drug localization in human HeLa cells nucleus assessed as mander's colocalization coefficient at 25 uM after 2 to 120 mins by SYBR green I staining based fluorescence microscopic analysis; assay type: ADME, subcellular; conditions: time 2-120 min
[4] = Drug localization in human HeLa cells mitochondria assessed as mander's colocalization coefficient at 25 uM after 10 to 120 mins by Mito-Tracker red CMXRos staining based fluorescence microscopic analysis; assay type: ADME; conditions: time 10-120 min
[5] = Stability in human serum assessed as compound degradation by measuring increase in fluorescence intensity at 100 uM measured upto 72 hrs by IQF based assay; assay type: ADME, cell-free
[6] = target: Trypsin (Homo sapiens, UniProt P07477+P07478+P35030); experiment: Stability of compound assessed as trypsin (unknown origin) mediated compound degradation by measuring increase in fluorescence intensity at 100 uM measured upto 72 hrs by IQF based assay; assay type: ADME, protein assay
[7] = Stability of compound in mouse A20 cells assessed as compound degradation by measuring increase in fluorescence intensity at 10 uM measured upto 72 hrs by IQF based assay; assay type: ADME, cell-based; conditions: a20, 72 h

| Drug uptake [1] | Drug uptake [2] | Drug uptake [3] | Drug uptake [4] | Stability [5] | Stability [6] | Stability [7] | Structure (SMILES) |
| --- | --- | --- | --- | --- | --- | --- | --- |
| Active | > 80% | < 20% | Not Active |  |  |  | CCN(CC)c1ccc2cc(C(=O)NCCOCC(=O)N[C@H](CCCCN)C(=O)N[C@H](CCCCN)C(=O)N[C@H](Cc3c[nH]c4ccccc34)C(=O)N[C@H](Cc3c[nH]c4ccccc34)C(=O)N[C@H](CCCCN)C(=O)N[C@H](CCCCN)C(=O)N[C@H](Cc3c[nH]c4ccccc34)C(=O)N[C@@H](C(=O)N[C@H](CCCCN)C(N)=O)C(c3ccccc3)c3ccccc3)c(=O)oc2c1 |
|  |  |  |  | Stable | Stable | Stable | NCCCC[C@@H](NC(=O)c1ccccc1N)C(=O)N[C@H](CCCCN)C(=O)N[C@H](Cc1c[nH]c2ccccc12)C(=O)N[C@H](Cc1c[nH]c2ccccc12)C(=O)N[C@H](CCCCN)C(=O)N[C@H](CCCCN)C(=O)N[C@H](Cc1c[nH]c2ccccc12)C(=O)N[C@@H](C(=O)N[C@H](CCCCN)C(=O)N[C@H](CCCCNc1ccc([N+](=O)[O-])cc1[N+](=O)[O-])C(N)=O)C(c1ccccc1)c1ccccc1 |
